System: Female Sprague-Dawley rats
Assay: In vivo diuresis and natriuresis in anesthetized rats
Parameters: species or system rat
Details: 300 ng/kg/min infusion, mean ± SE, n = 7
Protocol: The ability of analog #1 to effect diuresis and natriuresis in whole animals was determined as follows. Female Sprague-Dawley rats (230-260 g) anesthetized with inactin (100 mg/kg body weight) were catheterized by placing cannulae in femoral artery (B.P. monitoring), femoral vein (infusion of drugs and saline) and bladders (collection of urine). Post surgery, and prior to administration of test substance, saline was infused at 20 ul/min for 45 min in order to stabilize urine flow. Stabilization of urine flow was determined by collection of urine during several 10 min periods. Once stable urine flow was obtained, three 10 min control periods were collected followed by infusion of test compounds at 20 ul/min for 1 hr after priming with 10 times the infusion dose. Following experimental infusion period, saline was infused at 20 ul/min for 2 additional hr during the recovery phase. The urine volume collected during ten minute collection periods was determined gravimetrically. Urinary sodium excretion UNa V was determined photometrically.
Analog #1 infused at 10 ug/kg/min gives a mean 10-fold increase in urinary sodium excretion and a 2- to 3-fold increase in urinary flow rate. Maximal effects are not observed until the second or third experimental collection period and are sustained through the infusion.

## hANP(102-126): human atrial natriuretic peptide 102-126, comparison in rat diuresis/natriuresis (WDSSDRSALLKSKLRALLTAPRSLR; Atrial natriuretic factor; UniProt P01160 102-126, looked up, fragment)
  UNa V (urinary sodium excretion), difference between experimental and control periods: 2.24 ± 0.77 uEq/min
  V (urine flow), difference between experimental and control periods: 16.8 ± 9.3 µL/min

From patent publication US5449662A, “Atrial natriuretic peptide clearance inhibitors which resist degradation” (Scios Nova Inc., priority 1992, dated 1995)
